Reference: patent US12599600B2, “Compositions and methods for preventing and treating headache through enhancing 2-arachydonyl glyerol activity” (Arizona Board of Regents on Behalf of the University of …, priority 2020, dated 2026)

Tests used:
[1] = biological target: T1, CB2R (Homo sapiens, UniProt P34972); settings: cited from earlier work
[2] = biological target: T1, CB2R; settings: cited from earlier work; remark: listed apart in the source
[3] = biological target: GPR55 (Homo sapiens, UniProt Q9Y2T6); settings: cited from earlier work
Chain of GPR55 (Q9Y2T6 whole entry, species assumed): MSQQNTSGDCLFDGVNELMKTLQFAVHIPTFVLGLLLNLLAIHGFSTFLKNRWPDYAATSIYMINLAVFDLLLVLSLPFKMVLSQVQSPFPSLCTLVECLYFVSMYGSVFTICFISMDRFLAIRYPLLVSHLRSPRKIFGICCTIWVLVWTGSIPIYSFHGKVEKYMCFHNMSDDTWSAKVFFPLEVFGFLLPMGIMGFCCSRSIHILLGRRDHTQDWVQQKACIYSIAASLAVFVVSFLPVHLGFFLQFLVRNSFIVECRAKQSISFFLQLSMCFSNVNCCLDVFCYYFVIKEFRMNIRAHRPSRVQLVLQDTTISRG

[4] = tested on: cortical KCl induced periorbital allodynia in female rats; test: Cortical KCl induced periorbital (facial) allodynia in female rats; assay type: in vivo, rat; settings: for reversal of periorbital allodynia / prevention of periorbital allodynia: female rats
Method: FIG. 2A-D: Cortical KCl, but not dural KCl, induces periorbital allodynia in female rats and activates cFOS. A. Cortical KCl (0.5 μL, 1M) induces significant periorbital allodynia that is not blocked by dural lidocaine (2%, 5 μl, 10-15 min) pretreatment. […] C. Comparing areas under the curves for A and B confirmed that cortical KCl, regardless of dural lidocaine, induces significant periorbital allodynia that is not replicated by dural application of KCl. D. Cortical KCl allodynia increases cortical cFos 90 min post-injection (n=3-4/group). Data are mean±SEM (n=8-11), one or two-way ANOVA, *p<0.05: **<0.01: ***p<0.001: dotted line-naïve.
FIG. 8A-B: MAGL inhibition alleviates cortical KCl induced periorbital allodynia in female rats. […] Data are expressed mean±SEM (n=8-12), two-way RMANOVA Bonferroni, *p<0.051 **p<0.01: ****p<0.0001.
FIG. 9A-B: ABHD6 inhibition alleviates cortical KCl induced periorbital allodynia in female rats. […] Data are expressed mean±SEM (n=8-12), two-way RMANOVA Bonferroni, *p<0.05: **p<0.01: ***p<0.001.
FIG. 10A-B: Dual MAGL/ABHD6 inhibition alleviates cortical KCl induced periorbital allodynia in female rats. […] Data are expressed mean±SEM (n=7-14), two-way RMANOVA, Bonferroni, *p<0.05: **p<0.01: ****p<0.0001.
(§1) FIG. 13A-B: MAGL inhibition and cannabinoid receptor selectivity. Injection of CB1R antagonist, rimonabant (1 mg/kg, IP) prior to KCl shifted onset of MJN110 (10 mg/kg, IP) by 30 min. CB2R antagonist, SR144528 (1 mg/kg, IP), injected prior to KCl blocked the anti-allodynic effect of MJN110. Data are expressed mean±SEM (n=9), one- and two-way ANOVA, *p<0.05, ***p<0.001, ****p<0.0001.
Data are expressed mean±SEM (n=8-12), two-way RMANOVA Bonferroni, *p<0.051 **p<0.01: ****p<0.0001.
Data are expressed mean±SEM (n=8-12), two-way RMANOVA Bonferroni, *p<0.05: **p<0.01: ***p<0.001.
Data are expressed mean+SEM (n=7-14), two-way RMANOVA, Bonferroni, *p<0.05: **p<0.01: ****p<0.0001.
as §1, with “Injection” for “FIG. 13A-B: MAGL inhibition and cannabinoid receptor selectivity. Injection”, “mean #SEM” for “mean±SEM”

[5] = tested on: migraine pain; settings: preclinical, cited from earlier work

T1 sequence (P34972 whole entry): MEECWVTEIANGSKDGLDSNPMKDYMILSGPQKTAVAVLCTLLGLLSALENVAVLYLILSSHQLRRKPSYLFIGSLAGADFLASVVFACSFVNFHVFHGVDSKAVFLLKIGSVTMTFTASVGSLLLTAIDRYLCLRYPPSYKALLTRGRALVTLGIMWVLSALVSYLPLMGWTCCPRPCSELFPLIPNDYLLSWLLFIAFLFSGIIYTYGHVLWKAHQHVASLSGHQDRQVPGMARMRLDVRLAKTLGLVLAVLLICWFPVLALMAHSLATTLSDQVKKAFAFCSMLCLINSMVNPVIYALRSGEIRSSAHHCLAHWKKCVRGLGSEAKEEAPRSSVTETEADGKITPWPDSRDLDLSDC

CCCCC/C=C\C/C=C\C/C=C\C/C=C\CCCC(=O)OC(CO)CO [2AG, 2-arachidonoylglycerol]
Ki [1]: 0.175 to 1.4 µM | EC50 [2]: 0.004 µM | Emax [2]: 34% | EC50 [3]: 0.618 µM

O=C(N1CCCCC1c1ccccc1)n1cc(-c2ccc(-c3cccc(CO)c3)cc2)nn1 (centres unmarked) [KT182, (4-(3′-(hydroxymethyl)-[1,1′-biphenyl]-4-yl)-1H-1,2,3-triazol-1-yl)(2-phenylpiperidin-1-yl) methanone]
reversal of periorbital allodynia ([4]; KT182 2 mg/kg IP after cortical KCl (0.5 μL)): reverses | prevention of periorbital allodynia ([4]; KT182 2 mg/kg IP before cortical KCl (0.5 μL)): prevents

O=C(ON1C(=O)CCC1=O)N1CCN(C(c2ccc(Cl)cc2)c2ccc(Cl)cc2)CC1 [MJN110, 2,5-dioxopyrrolidin-1-yl 4-(bis(4-chlorophenyl)methyl)piperazine-1-carboxylate]
reversal of periorbital allodynia ([4]; MJN110 10 mg/kg IP after cortical KCl (0.5 μL)): reverses | prevention of periorbital allodynia ([4]; MJN110 10 mg/kg IP before cortical KCl (0.5 μL)): prevents

CCCCCc1cc(O)c2c(c1)OC(C)(C)[C@@H]1CCC(C)=C[C@@H]21 [THC]
reduction of migraine pain ([5]; acute): effective | migraine-like pain ([5]; repeated exposure): increases

CCN(CC)CC(=O)Nc1c(C)cccc1C [lidocaine]
block of cortical KCl induced periorbital allodynia ([4]; dural lidocaine 2%, 5 μl, 10-15 min pretreatment, cortical KCl 0.5 μL, 1M): not blocked | effect on periorbital allodynia after dural KCl ([4]; lidocaine pretreatment, dural KCl 5 uL, 1M): no effect

Cc1c(C(=O)NN2CCCCC2)nn(-c2ccc(Cl)cc2Cl)c1-c1ccc(Cl)cc1 [rimonabant]
shift of onset of MJN110 effect ([4]; rimonabant 1 mg/kg IP prior to KCl, MJN110 10 mg/kg IP): 30 min

SR144528
effect on the anti-allodynic effect of MJN110 ([4]; SR144528 1 mg/kg IP prior to KCl, MJN110 10 mg/kg IP): blocked
